Measured values reported in patent US20250154686A1, “COMPOUND LIBRARY” (CHUGAI SEIYAKU KABUSHIKI KAISHA, priority 2021, published 2025).

Molecular target: T1, Bcl-2 protein (Recombinant Human Bcl-2 Protein) (Homo sapiens, UniProt P10415)
T1 construct: purchased Novus Biologicals NBP2-34889
Experiment: AS-MS evaluation of binding of the Example 4 mixture library (1200 compounds/well) to Bcl-2, ASMS ratio (%)
Details: AS-MS, Example 4 mixture library; for ASMS ratio (%) n = 1: Bcl-2, replicate n = 1; for ASMS ratio (%) n = 2: Bcl-2, replicate n = 2
How it was run: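 ASMS ratio (%) derived from reverse-phase LC/MS of three samples: Bcl-2 (20 μM) incubation after SEC, protein-free standard without SEC, and protein-free blank after SEC. Compounds were pooled at 1200/well, 20 nM each, incubated 1 h, 23 °C, dark, in Tris-HCl pH 7.4 buffer with Tween-20 and DTT.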

T1 sequence (P10415 whole entry): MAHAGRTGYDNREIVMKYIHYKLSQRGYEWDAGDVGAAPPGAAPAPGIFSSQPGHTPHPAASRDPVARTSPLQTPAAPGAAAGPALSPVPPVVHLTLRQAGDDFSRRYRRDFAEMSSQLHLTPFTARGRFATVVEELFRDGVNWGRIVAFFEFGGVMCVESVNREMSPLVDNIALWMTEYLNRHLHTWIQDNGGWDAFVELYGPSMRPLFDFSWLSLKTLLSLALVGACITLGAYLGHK

Structure (SMILES) | ASMS ratio (%) n = 1 | ASMS ratio (%) n = 2
CCOc1cncc(-c2ccc(C(=O)N3CCN(c4ccc(C(=O)NS(=O)(=O)c5ccc(NCCSc6ccccc6)c(C(F)(F)F)c5)cc4)CC3)cc2F)c1 [Compound B2R028-01, 4-[4-[4-(5-Ethoxypyridin-3-yl)-3-fluorobenzoyl]piperazin-1-yl]-N-[4-(2-phenylsulfanylethylamino)-3-(trifluoromethyl)phenyl]sulfonylbenzamide] | 4.1% | −0.5%
CCOc1cccc(C#Cc2ccccc2C(=O)N2CCN(c3ccc(C(=O)NS(=O)(=O)c4ccc(NCCSc5ccccc5)c(C(F)(F)F)c4)cc3)CC2)c1 [Compound B2R029-01, 4-[4-[2-[2-(3-Ethoxyphenyl)ethynyl]benzoyl]piperazin-1-yl]-N-[4-(2-phenylsulfanylethylamino)-3-(trifluoromethyl)phenyl]sulfonylbenzamide] |  | 0.0%
CCOc1cncc(C#Cc2ccccc2C(=O)N2CCN(c3ccc(C(=O)NS(=O)(=O)c4ccc(NCCSc5ccccc5)c(C(F)(F)F)c4)cc3)CC2)c1 [Compound B2R030-01, 4-[4-[2-[2-(5-Ethoxypyridin-3-yl)ethynyl]benzoyl]piperazin-1-yl]-N-[4-(2-phenylsulfanylethylamino)-3-(trifluoromethyl)phenyl]sulfonylbenzamide] | 0.0% | 4.8%
CCOc1cccc(C#Cc2cncc(C(=O)N3CCN(c4ccc(C(=O)NS(=O)(=O)c5ccc(NCCSc6ccccc6)c(C(F)(F)F)c5)cc4)CC3)c2)c1 [Compound B2R031-01, 4-[4-[5-[2-(3-Ethoxyphenyl)ethynyl]pyridine-3-carbonyl]piperazin-1-yl]-N-[4-(2-phenylsulfanylethylamino)-3-(trifluoromethyl)phenyl]sulfonylbenzamide] | 0.0% | 4.8%
CCOc1cncc(C#Cc2cncc(C(=O)N3CCN(c4ccc(C(=O)NS(=O)(=O)c5ccc(NCCSc6ccccc6)c(C(F)(F)F)c5)cc4)CC3)c2)c1 [Compound B2R032-01, 4-[4-[5-[2-(5-Ethoxypyridin-3-yl)ethynyl]pyridine-3-carbonyl]piperazin-1-yl]-N-[4-(2-phenylsulfanylethylamino)-3-(trifluoromethyl)phenyl]sulfonylbenzamide] | 6.4% | 0.0%
CCOc1cccc(-c2ccccc2CCC(=O)N2CCN(c3ccc(C(=O)NS(=O)(=O)c4ccc(NCCSc5ccccc5)c(C(F)(F)F)c4)cc3)CC2)c1 [Compound B2R033-01, 4-[4-[3-[2-(3-Ethoxyphenyl)phenyl]propanoyl]piperazin-1-yl]-N-[4-(2-phenylsulfanylethylamino)-3-(trifluoromethyl)phenyl]sulfonylbenzamide] | 3.6% | −6.6%
CCOc1cncc(-c2ccccc2CCC(=O)N2CCN(c3ccc(C(=O)NS(=O)(=O)c4ccc(NCCSc5ccccc5)c(C(F)(F)F)c4)cc3)CC2)c1 [Compound B2R034-01, 4-[4-[3-[2-(5-Ethoxypyridin-3-yl)phenyl]propanoyl]piperazin-1-yl]-N-[4-(2-phenylsulfanylethylamino)-3-(trifluoromethyl)phenyl]sulfonylbenzamide] | 0.1% | −1.3%
CCOc1cccc(-c2ccc(C(=O)N3CCN(c4ccc(C(=O)NS(=O)(=O)c5ccc(NCCSc6ccccc6)c(C(F)(F)F)c5)cc4)CC3)c3ccccc23)c1 [Compound B2R035-01] | 8.3% | 0.9%
CCOc1cncc(-c2ccc(C(=O)N3CCN(c4ccc(C(=O)NS(=O)(=O)c5ccc(NCCSc6ccccc6)c(C(F)(F)F)c5)cc4)CC3)c3ccccc23)c1 [Compound B2R036-01, 4-[4-[4-(5-Ethoxypyridin-3-yl)naphthalene-1-carbonyl]piperazin-1-yl]-N-[4-(2-phenylsulfanylethylamino)-3-(trifluoromethyl)phenyl]sulfonylbenzamide] | 3.2% | −0.8%
CCOc1cccc(-c2cc(C(=O)N3CCN(c4ccc(C(=O)NS(=O)(=O)c5ccc(NCCSc6ccccc6)c(C(F)(F)F)c5)cc4)CC3)cc(C(C)(C)C)c2)c1 [Compound B2R037-01, 4-[4-[3-tert-Butyl-5-(3-ethoxyphenyl)benzoyl]piperazin-1-yl]-N-[4-(2-phenylsulfanylethylamino)-3-(trifluoromethyl)phenyl]sulfonylbenzamide] | 6.3% | −7.0%
CCOc1cncc(-c2cc(C(=O)N3CCN(c4ccc(C(=O)NS(=O)(=O)c5ccc(NCCSc6ccccc6)c(C(F)(F)F)c5)cc4)CC3)cc(C(C)(C)C)c2)c1 [Compound B2R038-01, 4-[4-[3-tert-Butyl-5-(5-ethoxypyridin-3-yl)benzoyl]piperazin-1-yl]-N-[4-(2-phenylsulfanylethylamino)-3-(trifluoromethyl)phenyl]sulfonylbenzamide] | 7.1% | −6.0%
CCOc1cccc(-c2cc(C(=O)N3CCN(c4ccc(C(=O)NS(=O)(=O)c5ccc(NCCSc6ccccc6)c(C(F)(F)F)c5)cc4)CC3)cc(C(F)(F)F)c2)c1 [Compound B2R039-01, 4-[4-[3-(3-Ethoxyphenyl)-5-(trifluoromethyl)benzoyl]piperazin-1-yl]-N-[4-(2-phenylsulfanylethylamino)-3-(trifluoromethyl)phenyl]sulfonylbenzamide] | 9.7% | −4.8%
CCOc1cncc(-c2cc(C(=O)N3CCN(c4ccc(C(=O)NS(=O)(=O)c5ccc(NCCSc6ccccc6)c(C(F)(F)F)c5)cc4)CC3)cc(C(F)(F)F)c2)c1 [Compound B2R040-01, 4-[4-[3-(5-Ethoxypyridin-3-yl)-5-(trifluoromethyl)benzoyl]piperazin-1-yl]-N-[4-(2-phenylsulfanylethylamino)-3-(trifluoromethyl)phenyl]sulfonylbenzamide] | 2.6% | 0.2%
CCOc1cccc(C#Cc2cc(C(=O)N3CCN(c4ccc(C(=O)NS(=O)(=O)c5ccc(NCCSc6ccccc6)c(C(F)(F)F)c5)cc4)CC3)cc(C(F)(F)F)c2)c1 [Compound B2R041-01, 4-[4-[3-[2-(3-Ethoxyphenyl)ethynyl]-5-(trifluoromethyl)benzoyl]piperazin-1-yl]-N-[4-(2-phenylsulfanylethylamino)-3-(trifluoromethyl)phenyl]sulfonylbenzamide] | 18.0% | 0.0%
CCOc1cncc(C#Cc2cc(C(=O)N3CCN(c4ccc(C(=O)NS(=O)(=O)c5ccc(NCCSc6ccccc6)c(C(F)(F)F)c5)cc4)CC3)cc(C(F)(F)F)c2)c1 [Compound B2R042-01, 4-[4-[3-[2-(5-Ethoxypyridin-3-yl)ethynyl]-5-(trifluoromethyl)benzoyl]piperazin-1-yl]-N-[4-(2-phenylsulfanylethylamino)-3-(trifluoromethyl)phenyl]sulfonylbenzamide] | 3.4% | 6.0%
CCOc1cccc(-c2cnn(-c3cc(C(=O)N4CCN(c5ccc(C(=O)NS(=O)(=O)c6ccc(NCCSc7ccccc7)c(C(F)(F)F)c6)cc5)CC4)cc(C(F)(F)F)c3)c2)c1 [Compound B2R043-01, 4-[4-[3-[4-(3-Ethoxyphenyl)pyrazol-1-yl]-5-(trifluoromethyl)benzoyl]piperazin-1-yl]-N-[4-(2-phenylsulfanylethylamino)-3-(trifluoromethyl)phenyl]sulfonylbenzamide] | 3.4% | −9.0%
